Reference: US12053480B2, “Methods and pharmaceutical compositions for treating peripheral demyelinating diseases” (INSERM (INSTITUT NATIONAL DE LA SANTE ET DE LA RECHERCHE …, priority 2015, dated 2024)
Entries after “also recorded” stand apart in the source; their conditions may differ.

Legend:
CMT1A rats = test: Behavioral motor tests (rotarod, grip, CatWalk) in CMT1A rats; type: in vivo, rat
Protocol: (§1) […] Mice and rats were first given a pretraining trial of two days to familiarize them with the rotating rod. For control and diabetic mice latency to fall was measured at fixed speed 10 rpm over a 180 s time as a cut-off. No acceleration testing was performed for mice. For control and CMT1A rats latency to fall and maximum rpm (revolutions per minute) were measured at accelerated speed. […] Each animal underwent three trials a day. For each day, data were averaged for each animal (values from the three trials), normalized according to animal weight and then averaged for each treated group.
Detailed analysis of gait was performed on free-walking 16 weeks old diabetic mice and 12 weeks old CMT1A rats using the CatWalk method (CatWalk XT 10.5, Noldus Information Technology) during PBS or TRO19622 treatment. The runs were analyzed when the speed of crossing was constant and homogenous. At least three compliant runs were analyzed for each animal Data were averaged per animal, normalized according to animal weight and then per treated group. The resulting data provided quantitative parameters and qualitative walking patterns.
(§2) Neuromuscular strength of diabetic mice and CMT rats was assessed in standardized grip strength tests for front, hind and all limbs. All limbs grip strength was measured by rat supporting on the metal grid and pulling the animal's tail toward a horizontal grid connected to a gauge. Front and hind limb grip strength were measured by supporting the forelimbs or hindlimbs respectively and pulling the animal's tail toward a horizontal T-bar connected to a gauge. The maximum force (measured in newtons) exerted onto the T-bar or grid before the animals lost grip was recorded, and the mean of 3 repeated measurements was calculated. All data were normalized according to animal weight.
Finally, we studied the neuromuscular performance of CMT1A and control rats using behavioral motor tests. […] Moreover, using catwalk test we observed a decrease of paw time stand (FIG. 2B), hind paw distance (FIG. 2C) and an increase of paw print area (FIG. 2D). […] Therefore inhibiting mitochondrial calcium release through VDAC1 opens a major avenue toward the treatment of human CMT1A.

diabetic (db/db) mice = test: Behavioral tests (rotarod, grip, CatWalk) in diabetic mice; type: in vivo, mouse
Protocol: as §1
[…] The runs were analyzed when the speed of crossing was constant and homogenous. At least three compliant runs were analyzed for each animal Data were averaged per animal, normalized according to animal weight and then per treated group. The resulting data provided quantitative parameters and qualitative walking patterns.
as §2
Finally, although the obesity of db/db diabetic mice hinders functional motor tests, we evaluated their neuromuscular performances during drug treatment using rotarod, grip and Catwalk tests. […] Rotarod and grip strength recoveries were not due to a reduced weight as no change in mice weight was observed during treatment.

mSC mitochondria = test: Mitochondrial motility imaging (mito-dsRed2) in mSC of mouse sciatic nerve; type: in vivo; conditions: after nerve crush
Protocol: Mice were anesthetized with isoflurane inhalation and placed under a Stemi2000 microscope (Zeiss). Incision area was shaved and cleaned using betadine solution. After incision, the gluteus superficialis and biceps femoris muscles were separated to reveal the cavity traversed by the sciatic nerve. The nerve was lift out using spatula and a thin glass needle filled with viral solution (8 μl) was introduced into the nerve with a micromanipulator. This solution was injected over 30 min with short pressure pulses using a Picospritzer III (Parker Hannifin) coupled to a pulse generator. After injection, the nerve was replaced into the cavity, the muscles were readjusted, and the wound was closed using clips (for further details see Gonzalez et al., 2014^3).
TRO19622 drug (Tocris bioscience, Ref. 2906) was diluted in ethanol to 20 mM and then, the solution was diluted in sterile PBS to 20 μM. TRO19622 treatments were realized by 3 mg/kg intraperitoneal (IP) injections of 20 mM solution or by intra sciatic nerve injections of 2 μl of drug solution 2 μM using a Hamilton syringe or a glass needle in sterile conditions 30 minutes before multiphoton image acquisitions or immunohistochemistry and demyelination studies respectively. Methyl jasmonate drug (Sigma-Aldrich, Ref. 392707) was diluted in 1 ml of sterile PBS to 1M or 3M. Methyl jasmonate treatments were realized by intra sciatic nerve injections of 1 μl of drug solution using a glass needle and micromanipulator in sterile conditions following the same virus injections procedure (see in vivo virus injection in the sciatic nerve method) two hours before multiphoton image acquisition. […] All drug concentrations were previously evaluated by Bordet et al, 2007^5; Goldin et al, 2008^6; Sharov et al, 2007^7.
First injected mouse was anesthetized with 5% of isoflurane a 1.5% of oxygen into the anesthesia system box (World Precision Instruments, Ref. EZ-B800) for 5 minutes. Anesthesia controls were realized^8. Then, mouse was placed in anesthesia mask and the incision area was shaved and cleaned with betadine and ethanol 70% solution. Incision was realized using a scalpel and the skin was retracted using forceps in order to expose the gluteus superficialis and bleeps femoris muscles. Next, the connective tissue that connects both muscles was cut and the sciatic nerve was gently lifted out using a spatula. A flexible bridge was slide below sciatic nerve and it was placed into a plastic first pool fixed to the bridge. Mouse was placed under the multiphoton microscope, the bridge was fixed using magnetic brackets to avoid physiological movement and mouse legs were fixed using clippers. Microscope dark box temperature is controlled to 37° C. during all time-lapse imaging. Finally, a second pool was fixed to the first pool using a drop of agarose low melting 3% (Promega, Ref. V2111) in Leibovitz's L15 medium (Gibco Life Technologies) and filled with deionized water to immerse the objectives 20× or 63× (Carl Zeiss Microscopy).
All time-lapse images were obtained with a multiphoton microscope Zeiss LSM 7 MP OPO. Mitochondria motility images were acquired by time-lapse recording of one image every five minutes during five hours at 920 nm. GCaMP2 and SypHer probe images were acquired by time-lapse recording of one image every fifteen minutes during five hours at 985 nm. Images were acquired to constant 1% of laser intensity to 100 msec of acquisition time with 512×512 resolution and 10 images of z-stack of 20 μm. […]

[1] = CMT1A rats treated for one month

SMILES: CC(C)CCC[C@@H](C)[C@H]1CC[C@H]2[C@@H]3CCC4=C/C(=N\O)CC[C@]4(C)[C@H]3CC[C@]12C [TRO19622, (NZ)—N-[(8S,9S,10R,13R,14S,17R)-10,13-dimethyl-17-[(2R)-6-methylheptan-2-yl]-1,2,6,7,8,9,11,12,14,15,16,17-dodecahydrocyclopenta[a]phenanthren-3-ylidene]hydroxylamine]
- grip strength (CMT1A rats; [1]): significant increase
- latency on accelerating rotarod (CMT1A rats; [1]): significant increase
- effects on demyelination, g-ratio and behavioral motor tests after stopping the treatment (CMT1A rats; CMT1A rats, 2 months after stopping the treatment): disappeared; also recorded: did not last
- hind paw distance (CMT1A rats; CMT1A rats, catwalk test): decrease
- paw print area (CMT1A rats; CMT1A rats, catwalk test): increase
- paw time stand (CMT1A rats; CMT1A rats, catwalk test): decrease
- Catwalk test parameters (diabetic (db/db) mice): no change
- myelin thickness, nerve conduction velocity and neuromuscular defects (all these parameters) (diabetic (db/db) mice): steadily improve
- effects on MAPK activation, nerve structure and neuromuscular performance after stopping the treatment (diabetic (db/db) mice; 2 months after stopping the treatment): did not last
- grip strength (diabetic (db/db) mice; 20 days after treatment): significant increase
- rotarod latency (diabetic (db/db) mice; 20 days after treatment): significant increase
- changes induced by nerve crush in mitochondrial motility not abrogated (mSC mitochondria): 20%
